Reference: patent US12077503B2, “Substituted cyclic amides and their use as herbicides” (FMC CORPORATION, priority 2015, dated 2024)

Key:
Type in all cases: in vivo
[1] = system: Kochia (Kochia scoparia); test: Test A preemergence; conditions: Bassia scoparia, pre-emergence, 240 h, 0 to 100 scale where 0 is no effect and 100 is complete control, read-out: Kochia plant response rating; for pest or weed control at 31 g/ha: 31 g ai/ha, Preemergence; for pest or weed control at 125 g/ha: 125 g ai/ha, preemergence, approx. 10 d
Summary of the method: (§1)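 In a loam soil and sand blend, planted seeds got a preemergence directed soil spray, and young plants at the one- to two-leaf stage, 2–10 cm high, got a postemergence application; ~10 d greenhouse hold; injury rated visually, 0 = none, 100 = complete control.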

[2] = system: barnyardgrass (Echinochloa crus-galli); test: Test A preemergence; conditions: Echinochloa crus-galli, pre-emergence, 240 h, 0 to 100 scale where 0 is no effect and 100 is complete control, read-out: Barnyardgrass plant response rating; for pest or weed control at 31 g/ha: 31 g ai/ha, Preemergence; for pest or weed control at 125 g/ha: 125 g ai/ha, preemergence, approx. 10 d
Summary of the method: as §1

[3] = system: giant foxtail (Setaria faberii); test: Test A preemergence; conditions: Setaria faberi, pre-emergence, 240 h, 0 to 100 scale where 0 is no effect and 100 is complete control, read-out: Foxtail, Giant plant response rating; for pest or weed control at 31 g/ha: 31 g ai/ha, Preemergence; for pest or weed control at 125 g/ha: 125 g ai/ha, preemergence, approx. 10 d
Summary of the method: as §1

[4] = system: pigweed (Amaranthus retroflexus); test: Test A preemergence; conditions: Amaranthus retroflexus, pre-emergence, 240 h, 0 to 100 scale where 0 is no effect and 100 is complete control, read-out: Pigweed plant response rating; for pest or weed control at 31 g/ha: 31 g ai/ha, Preemergence; for pest or weed control at 125 g/ha: 125 g ai/ha, preemergence, approx. 10 d
[5] = system: ragweed (common ragweed, Ambrosia elatior); test: Test A preemergence; conditions: Ambrosia artemisiifolia, pre-emergence, 240 h, 0 to 100 scale where 0 is no effect and 100 is complete control, read-out: Ragweed plant response rating; for pest or weed control at 31 g/ha: 31 g ai/ha, Preemergence; for pest or weed control at 125 g/ha: 125 g ai/ha, preemergence, approx. 10 d
Summary of the method: as §1

[6] = system: ryegrass, Italian (Italian ryegrass, Lolium multiflorum); test: Test A preemergence; conditions: Lolium multiflorum, pre-emergence, 240 h, 0 to 100 scale where 0 is no effect and 100 is complete control, read-out: Ryegrass, Italian plant response rating; for pest or weed control at 31 g/ha: 31 g ai/ha, Preemergence; for pest or weed control at 125 g/ha: 125 g ai/ha, preemergence, approx. 10 d
Summary of the method: as §1

[7] = system: Galium (catchweed bedstraw, Galium aparine); test: Test A postemergence; conditions: Galium, post-emergence, 240 h; for pest or weed control at 125 g/ha: 125 g ai/ha, postemergence, visual injury on 0 to 100 scale (0 no effect, 100 complete control), approx. 10 d, read-out: Galium plant response rating; for pest or weed control at 31 g/ha: Postemergence, 31 g ai/ha, visual injury after approx. 10 d, 0 to 100 scale, 0 no effect, 100 complete control, read-out: Plant response rating, Galium
Summary of the method: as §1

[8] = system: Kochia (Kochia scoparia); test: Test A postemergence; conditions: Bassia scoparia, post-emergence, 240 h; for pest or weed control at 125 g/ha: 125 g ai/ha, postemergence, visual injury on 0 to 100 scale (0 no effect, 100 complete control), approx. 10 d, read-out: Kochia plant response rating; for pest or weed control at 31 g/ha: Postemergence, 31 g ai/ha, visual injury after approx. 10 d, 0 to 100 scale, 0 no effect, 100 complete control, read-out: Plant response rating, Kochia
Summary of the method: as §1

[9] = system: barnyardgrass (Echinochloa crus-galli); test: Test A postemergence; conditions: Echinochloa crus-galli, post-emergence, 240 h; for pest or weed control at 125 g/ha: 125 g ai/ha, postemergence, visual injury on 0 to 100 scale (0 no effect, 100 complete control), approx. 10 d, read-out: Barnyardgrass plant response rating; for pest or weed control at 31 g/ha: Postemergence, 31 g ai/ha, visual injury after approx. 10 d, 0 to 100 scale, 0 no effect, 100 complete control, read-out: Plant response rating, Barnyardgrass
Summary of the method: as §1

[10] = system: blackgrass (Alopecurus myosuroides); test: Test A postemergence; conditions: Alopecurus myosuroides, post-emergence, 240 h; for pest or weed control at 125 g/ha: 125 g ai/ha, postemergence, visual injury on 0 to 100 scale (0 no effect, 100 complete control), approx. 10 d, read-out: Blackgrass plant response rating; for pest or weed control at 31 g/ha: Postemergence, 31 g ai/ha, visual injury after approx. 10 d, 0 to 100 scale, 0 no effect, 100 complete control, read-out: Plant response rating, Blackgrass
Summary of the method: as §1

[11] = system: corn (Zea mays); test: Test A postemergence; conditions: Zea mays, post-emergence, 240 h; for plant injury at 125 g/ha: 125 g ai/ha, postemergence, visual injury on 0 to 100 scale (0 no effect, 100 complete control), approx. 10 d, read-out: Corn plant response rating; for Corn plant response rating (crop injury, 0 = no effect, 100 = complete kill) at 31 g/ha: Postemergence, 31 g ai/ha, visual injury after approx. 10 d, 0 to 100 scale, 100 complete control
Summary of the method: as §1

[12] = system: giant foxtail (Setaria faberii); test: Test A postemergence; conditions: Setaria faberi, post-emergence, 240 h; for pest or weed control at 125 g/ha: 125 g ai/ha, postemergence, visual injury on 0 to 100 scale (0 no effect, 100 complete control), approx. 10 d, read-out: Foxtail, Giant plant response rating; for pest or weed control at 31 g/ha: Postemergence, 31 g ai/ha, visual injury after approx. 10 d, 0 to 100 scale, 0 no effect, 100 complete control, read-out: Plant response rating, Foxtail, Giant
Summary of the method: as §1

[13] = system: pigweed (Amaranthus retroflexus); test: Test A postemergence; conditions: Amaranthus retroflexus, post-emergence, 240 h; for pest or weed control at 125 g/ha: 125 g ai/ha, postemergence, visual injury vs untreated controls after approx. 10 d, 0 = no effect, 100 = complete control, read-out: Pigweed plant response rating (0 to 100 scale); for pest or weed control at 31 g/ha: Postemergence, 31 g ai/ha, visual injury after approx. 10 d, 0 to 100 scale, 0 no effect, 100 complete control, read-out: Plant response rating, Pigweed
Summary of the method: as §1

[14] = system: ragweed (common ragweed, Ambrosia elatior); test: Test A postemergence; conditions: Ambrosia artemisiifolia, post-emergence, 240 h; for pest or weed control at 125 g/ha: 125 g ai/ha, postemergence, visual injury vs untreated controls after approx. 10 d, 0 = no effect, 100 = complete control, read-out: Ragweed plant response rating (0 to 100 scale); for pest or weed control at 31 g/ha: Postemergence, 31 g ai/ha, visual injury after approx. 10 d, 0 to 100 scale, 0 no effect, 100 complete control, read-out: Plant response rating, Ragweed
Summary of the method: as §1

[15] = system: ryegrass, Italian (Italian ryegrass, Lolium multiflorum); test: Test A postemergence; conditions: Lolium multiflorum, post-emergence, 240 h; for pest or weed control at 125 g/ha: 125 g ai/ha, postemergence, visual injury vs untreated controls after approx. 10 d, 0 = no effect, 100 = complete control, read-out: Ryegrass, Italian plant response rating (0 to 100 scale); for pest or weed control at 31 g/ha: Postemergence, 31 g ai/ha, visual injury after approx. 10 d, 0 to 100 scale, 0 no effect, 100 complete control, read-out: Plant response rating, Ryegrass, Italian
Summary of the method: as §1

[16] = system: wheat (Triticum aestivum); test: Test A postemergence; conditions: Triticum aestivum, post-emergence, 240 h; for plant injury at 125 g/ha: 125 g ai/ha, postemergence, visual injury vs untreated controls after approx. 10 d, 0 = no effect, 100 = complete control, read-out: Wheat plant response rating (0 to 100 scale); for plant injury at 31 g/ha: Postemergence, 31 g ai/ha, visual injury after approx. 10 d, 0 to 100 scale, 0 no effect, 100 complete control, read-out: Plant response rating, Wheat
Summary of the method: as §1

[17] = system: barnyardgrass (Echinochloa crus-galli); test: Test B flooded paddy test; conditions: Echinochloa crus-galli, 250 g ai/ha, Flood; 0 to 100 scale where 0 is no effect and 100 is complete control; read-out: Barnyardgrass plant response rating
Summary of the method: (§2)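 Evaluation by eye, against controls, occurred 13–15 d post-treatment in a greenhouse, using a 0 (no effect) to 100 (complete control) scale. Application was into the paddy water, 3 cm deep over the soil, on 2-leaf plants.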

[18] = system: ducksalad (Heteranthera limosa); test: Test B flooded paddy test; conditions: Heteranthera limosa, 250 g ai/ha, Flood; 0 to 100 scale where 0 is no effect and 100 is complete control; read-out: Ducksalad plant response rating
Summary of the method: as §2

[19] = system: rice (Oryra sativa); test: Test B flooded paddy test; conditions: Oryza sativa, 250 g ai/ha, Flood; 0 to 100 scale where 0 is no effect and 100 is complete control; read-out: Rice plant response rating
Summary of the method: as §2

[20] = system: sedge, umbrella (small-flower umbrella sedge, Cyperus difformis); test: Test B flooded paddy test; conditions: Cyperus difformis, 250 g ai/ha, Flood; 0 to 100 scale where 0 is no effect and 100 is complete control; read-out: Sedge, Umbrella plant response rating
Summary of the method: as §2

CSc1ccccc1NC(=O)[C@H]1C(=O)N(C)C[C@@H]1c1ccc(F)c(Oc2ccccc2)c1 [Compound 1142]
pest or weed control at 31 g/ha [1]: 0% | pest or weed control at 125 g/ha [1]: 0% | pest or weed control at 31 g/ha [2]: 0% | pest or weed control at 125 g/ha [2]: 30% | pest or weed control at 31 g/ha [3]: 30% | pest or weed control at 125 g/ha [3]: 90% | pest or weed control at 31 g/ha [4]: 0% | pest or weed control at 125 g/ha [4]: 60% | pest or weed control at 31 g/ha [5]: 0% | pest or weed control at 125 g/ha [5]: 0% | pest or weed control at 31 g/ha [6]: 0% | pest or weed control at 125 g/ha [6]: 0% | pest or weed control at 125 g/ha [7]: 30% | pest or weed control at 31 g/ha [7]: 0% | pest or weed control at 125 g/ha [8]: 0% | pest or weed control at 31 g/ha [8]: 0% | pest or weed control at 125 g/ha [9]: 30% | pest or weed control at 31 g/ha [9]: 0% | pest or weed control at 125 g/ha [10]: 0% | pest or weed control at 31 g/ha [10]: 0% | plant injury at 125 g/ha [11]: 0% | Corn plant response rating (crop injury, 0 = no effect, 100 = complete kill) at 31 g/ha [11]: 0% | pest or weed control at 125 g/ha [12]: 60% | pest or weed control at 31 g/ha [12]: 0% | pest or weed control at 125 g/ha [13]: 30% | pest or weed control at 31 g/ha [13]: 0% | pest or weed control at 125 g/ha [14]: 0% | pest or weed control at 31 g/ha [14]: 0% | pest or weed control at 125 g/ha [15]: 0% | pest or weed control at 31 g/ha [15]: 0% | plant injury at 125 g/ha [16]: 0% | plant injury at 31 g/ha [16]: 0% | pest or weed control at 250 g/ha [17]: 0% | pest or weed control at 250 g/ha [18]: 0% | pest or weed control at 250 g/ha [19]: 0% | pest or weed control at 250 g/ha [20]: 0%

CN1C[C@H](c2ccc(F)c(Oc3ccccc3)c2)[C@@H](C(=O)Nc2ccccc2S(C)(=O)=O)C1=O [Compound 1143]
pest or weed control at 31 g/ha [1]: 0% | pest or weed control at 125 g/ha [1]: 0% | pest or weed control at 31 g/ha [2]: 0% | pest or weed control at 125 g/ha [2]: 40% | pest or weed control at 31 g/ha [3]: 20% | pest or weed control at 125 g/ha [3]: 80% | pest or weed control at 31 g/ha [4]: 0% | pest or weed control at 125 g/ha [4]: 0% | pest or weed control at 31 g/ha [5]: 0% | pest or weed control at 125 g/ha [5]: 0% | pest or weed control at 31 g/ha [6]: 0% | pest or weed control at 125 g/ha [6]: 0% | pest or weed control at 125 g/ha [7]: 0% | pest or weed control at 31 g/ha [7]: 0% | pest or weed control at 125 g/ha [8]: 0% | pest or weed control at 31 g/ha [8]: 0% | pest or weed control at 125 g/ha [9]: 50% | pest or weed control at 31 g/ha [9]: 0% | pest or weed control at 125 g/ha [10]: 0% | pest or weed control at 31 g/ha [10]: 0% | plant injury at 125 g/ha [11]: 0% | Corn plant response rating (crop injury, 0 = no effect, 100 = complete kill) at 31 g/ha [11]: 0% | pest or weed control at 125 g/ha [12]: 40% | pest or weed control at 31 g/ha [12]: 0% | pest or weed control at 125 g/ha [13]: 20% | pest or weed control at 31 g/ha [13]: 0% | pest or weed control at 125 g/ha [14]: 0% | pest or weed control at 31 g/ha [14]: 0% | pest or weed control at 125 g/ha [15]: 0% | pest or weed control at 31 g/ha [15]: 0% | plant injury at 125 g/ha [16]: 0% | plant injury at 31 g/ha [16]: 0% | pest or weed control at 250 g/ha [17]: 0% | pest or weed control at 250 g/ha [18]: 0% | pest or weed control at 250 g/ha [19]: 0% | pest or weed control at 250 g/ha [20]: 0%
